Measurements: patent US20030078190A1 (priority 2001, published 2003)
Values joined by “and” are separate entries in the source; they are usually repeats but may differ in a detail not shown here. Equal values may be shown once. “Also recorded” adds a separate entry of the source. Read-outs that look alike come from different tables or passages of the source. Marks after values point to notes of the source that are not given here.

Columns and labels:
[1] = tested on: hypertensive patients; details: cited from earlier work; for BP reductions in comparative short-term trials between ACEI and ARBs: in vivo
[2] = tested on: patients with dilated aortic roots; assay: Aortic root size by M-mode echocardiography under ARB therapy (Example 10); format: in vivo, human
From the text: Since regression of the aortic root dilatation on echocardiogram was so unusual, a study was undertaken to evaluate other individuals with aortic root dilatation to determine whether aortic root aneurysms or dilatation could be reduced using ARBs. […] In order to evaluate one group of homogeneous subjects, the following were inclusion criteria: (1) same modality of testing to determine the thickness of the aortic root; (2) same instrument; (3) same interpreter of echocardiogram; (4) subjects needed to be on medication (antihypertensive including ARB or ARB if normotensive); (5) at least 9 months of ARB therapy; and (6) the disease was strictly aneurysm, not CAD or CHF. Applying the above inclusion criteria, a group of 15 subjects was selected for analysis. The group included 13 men and 2 women, aged 66.4±13.3 years and weighing 188.8±29.6 pounds. Aortic root sizes were measured using M-mode echocardiography with a leading-edge-to-leading-edge measurement of the maximal distance between the anterior aortic root wall and the posterior aortic root wall, measured at a level immediately above the cusps at end diastole. The standard deviation for intra-observer error was ±2 mm. Interval changes in aortic root size were measured as initial value-most recent value, where a positive resulting value indicated a corresponding decrease in aortic root size over the interval.

[3] = tested on: patients with heavy proteinuria (>1.5 g/day); assay: Blood pressure, serum creatinine, serum potassium and tolerability during candesartan dose titration (Example 1); format: in vivo, human
Protocol: (§1) Ten older patients (67±10 years; 80% male) with heavy proteinuria (>1.5 g/day) were started on 16 or 32 mg of candesartan cilexetil daily. Several patients had renal biopsies performed. Eight patients had nephrotic syndrome, four of whom had diabetic nephropathy, two had focal sclerosis, one had membranous nephropathy, and one had postinfectious nephropathy. The two other patients had nephrosclerosis, one being extremely severe and associated with moderate interstitial disease. Most of the patients were already receiving multiple medications for optimal BP control which included the following: calcium channel blockers (CCBs, 80%), diuretics (70%), beta blockers (40%), alpha blockers (40%), and ACEI (40%). Additional concurrent medications included lipid-lowering agents, anti-ischemic drugs and hypoglycemic agents. No effort was made to standardize any class of medications other than ARBs, and no other controls, such as sodium restriction, were instituted as patients were treated using standard office practice procedures.
(§2) After 1-2 months of therapy, the dose of candesartan cilexetil was titrated upwards (at 16-32 mg dose increments) to 96 mg/d, while 24-hour urine samples were obtained to measure protein and creatinine. The candesartan doses were increased independently of the need for BP control. Subsequently, the effect of increased doses of candesartan on 24-hour urinary protein and creatinine excretion, BP, serum creatinine and potassium were serially measured.
(§3) Baseline data was utilized either prospectively or from past patient records collected close to the time of the clinical observation period. […] Thus, no statistical analysis was performed but general trends are noted.

[4] = biological target: tissue ACE (Homo sapiens, UniProt P12821); details: compared with other ACEI (e.g., enalapril); due to lipophilic properties; cited from earlier work
[5] = tested on: patients with heavy proteinuria (>1.5 g/day); assay: 24-hour urinary protein excretion with high-dose candesartan cilexetil (Example 1); format: in vivo, human
Protocol: The optimal doses of ACEIs and/or ARBs for maximal reduction in urinary protein excretion are not known. Moreover, beneficial effects from ARBs, such as tissue protection owing to a more complete blockade of the RAAS, may be independent of blood pressure-lowering by ARBs. This investigation was designed to evaluate whether increasing the dose of candesartan cilexetil, in subjects already on the FDA's maximum recommended daily doses of 32 mg, would induce a further reduction in 24-hour urinary protein excretion in patients with heavy proteinuria (urinary protein excretion >1.5 g/day; mean 4.4±2 g/day).
as §1, §2, §3

[6] = biological target: T1, AT1 receptor (Homo sapiens, UniProt P30556); details: cited from earlier work
T1 sequence (P30556 1-359): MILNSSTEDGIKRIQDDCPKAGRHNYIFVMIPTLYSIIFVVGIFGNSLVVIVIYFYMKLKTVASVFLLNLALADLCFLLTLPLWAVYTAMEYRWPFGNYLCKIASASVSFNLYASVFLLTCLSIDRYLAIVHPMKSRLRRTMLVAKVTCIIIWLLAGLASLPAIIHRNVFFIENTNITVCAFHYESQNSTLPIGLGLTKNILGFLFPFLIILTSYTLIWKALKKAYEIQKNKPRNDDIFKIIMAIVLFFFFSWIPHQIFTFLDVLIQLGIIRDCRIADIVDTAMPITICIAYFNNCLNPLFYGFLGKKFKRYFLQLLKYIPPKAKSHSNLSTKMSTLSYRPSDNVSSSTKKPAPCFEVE

[7] = tested on: subjects with both diabetic and non-diabetic renal disease; assay: Preliminary unpublished observations: microalbuminuria under supramaximal ARB doses; format: in vivo, human
From the text: Strategies to enhance blockade of the tissue RAAS may result in greater renoprotective effects, by further reducing intraglomerular hydrostatic pressure and glomerular hypertrophy, and providing additional improvements in glomerular permselectivity. […] Utilizing ARBs rather than ACEI was chosen owing to evidence that ARBs provide enhanced tissue RAAS blockade by prevention of the ACE escape phenomenon and thus more complete blockade of angiotensin II (AII) produced by both ACE and non-ACE pathways.

[8] = tested on: normotensive patients with IgA nephropathy; details: cited from earlier work
[9] = tested on: normotensive, proteinuric patients with IgA nephropathy; details: increasing dose of lisinopril; cited from earlier work

tissue ACE, sequence (P12821 30-1306): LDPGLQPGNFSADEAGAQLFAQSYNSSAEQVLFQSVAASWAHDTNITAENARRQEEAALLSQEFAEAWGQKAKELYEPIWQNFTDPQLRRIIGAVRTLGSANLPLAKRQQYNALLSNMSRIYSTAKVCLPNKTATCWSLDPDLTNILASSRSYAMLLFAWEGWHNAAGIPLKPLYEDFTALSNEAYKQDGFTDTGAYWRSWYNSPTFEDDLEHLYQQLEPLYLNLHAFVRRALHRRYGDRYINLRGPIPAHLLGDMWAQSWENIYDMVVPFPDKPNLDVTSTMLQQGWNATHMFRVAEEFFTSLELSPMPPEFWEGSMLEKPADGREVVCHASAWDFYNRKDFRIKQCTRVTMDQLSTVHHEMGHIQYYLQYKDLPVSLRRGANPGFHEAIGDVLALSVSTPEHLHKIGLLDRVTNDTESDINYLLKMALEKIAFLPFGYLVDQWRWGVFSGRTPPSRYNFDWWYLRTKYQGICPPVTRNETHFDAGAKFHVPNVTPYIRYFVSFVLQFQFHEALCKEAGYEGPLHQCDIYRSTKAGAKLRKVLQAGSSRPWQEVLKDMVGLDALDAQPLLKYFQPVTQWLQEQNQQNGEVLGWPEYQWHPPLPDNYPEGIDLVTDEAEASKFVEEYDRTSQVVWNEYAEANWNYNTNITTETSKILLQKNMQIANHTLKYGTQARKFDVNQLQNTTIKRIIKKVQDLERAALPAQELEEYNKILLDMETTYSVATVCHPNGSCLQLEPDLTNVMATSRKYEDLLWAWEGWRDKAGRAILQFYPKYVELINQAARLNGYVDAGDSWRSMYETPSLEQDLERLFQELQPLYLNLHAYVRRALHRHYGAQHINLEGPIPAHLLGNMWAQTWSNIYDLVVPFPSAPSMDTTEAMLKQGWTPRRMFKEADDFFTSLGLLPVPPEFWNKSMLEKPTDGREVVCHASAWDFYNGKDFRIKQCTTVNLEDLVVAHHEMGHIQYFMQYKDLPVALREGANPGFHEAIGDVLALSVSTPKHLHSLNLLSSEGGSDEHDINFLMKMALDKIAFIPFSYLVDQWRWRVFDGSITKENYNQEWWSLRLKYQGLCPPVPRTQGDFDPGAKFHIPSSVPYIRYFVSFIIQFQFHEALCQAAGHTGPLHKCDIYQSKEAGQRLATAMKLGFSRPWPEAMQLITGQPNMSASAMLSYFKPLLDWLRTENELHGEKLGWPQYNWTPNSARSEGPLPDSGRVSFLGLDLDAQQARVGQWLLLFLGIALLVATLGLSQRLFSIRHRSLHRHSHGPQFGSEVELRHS

CCOC(=O)[C@H](CCc1ccccc1)N[C@@H](C)C(=O)N1[C@H](C(=O)O)C[C@@H]2CCC[C@@H]21 [ramipril]
Additive antihypertensive response to add-on therapy ([1]; ACEI (ramipril) added to existing ARB (losartan) therapy): small and not significant

CCOc1nc2cccc(C(=O)O)c2n1Cc1ccc(-c2ccccc2-c2nnn[nH]2)cc1 [candesartan]
Interval change in aortic root size (initial value minus most recent value) ([2]; one hypertensive subject, 128 mg/d): 8 mm
Interval change in aortic root size (initial value minus most recent value) ([2]; one normotensive subject, 64 mg/d): 12 mm
Decrease in aortic root size ([2]; ten of 15 subjects, at least 9 months of ARB therapy): more than 2 mm
Tolerability ([3]; 96 mg/d): well tolerated, metabolically neutral
Increase in serum creatinine ([3]; at the higher doses of candesartan, attributable primarily to two of the ten patients): 0.5 to 0.7 mg/dL
Serum potassium ([3]; throughout the dosing range of candesartan): 4.3 to 4.5 mmol/L

CCOC(=O)[C@H](CCc1ccccc1)N[C@@H](C)C(=O)N1CCC[C@H]1C(=O)O [enalapril]
BP reductions in comparative short-term trials between ACEI and ARBs [1]: equivalent BP reductions

CCOC(=O)[C@H](CCc1ccccc1)N[C@@H](C)C(=O)N1Cc2ccccc2C[C@H]1C(=O)O [quinapril]
Ability to block tissue ACE activity [4]: better able to block tissue ACE activity

CCCCc1nc(Cl)c(CO)n1Cc1ccc(-c2ccccc2-c2nn[nH]n2)cc1 [losartan]
BP reductions compared with ACEI ([1]; a few studies): smaller BP reductions
BP reductions in comparative short-term trials between ACEI and ARBs [1]: equivalent BP reductions
Antihypertensive response to add-on therapy ([1]; losartan 25-50 mg/d added to existing ramipril 2.5-5 mg/d, four-week study of 30 hypertensives): enhanced
Protein Excretion (24-hour urinary protein excretion rate) ([5]; losartan 50 mg, patient 6): 1.1^+ g/day
Type of antagonism at the AT1 receptor [6]: surmountable
Type of antagonism at the AT1 receptor ([6]; listed as Losartan): competitive antagonist
Effect on microalbuminuria [7]: additional reductions in microalbuminuria
Change of urinary protein excretion on monotherapy ([8]; either drug as monotherapy, ARB = losartan): −27%
Reduction of urinary protein excretion on combined ACEI and ARB therapy ([8]; losartan 50 mg/day added to a moderate dose of an ACEI): 69%

CCCc1nc2c(C)cc(-c3nc4ccccc4n3C)cc2n1Cc1ccc(-c2ccccc2C(=O)O)cc1 [telmisartan]
BP reductions in comparative short-term trials between ACEI and ARBs [1]: equivalent BP reductions

CCCCc1ncc(/C=C(\Cc2cccs2)C(=O)O)n1Cc1ccc(C(=O)O)cc1 [eprosartan]
Affinity for the AT1 receptor [6]: lower affinity
Type of antagonism at the AT1 receptor [6]: surmountable

NCCCC[C@H](N[C@@H](CCc1ccccc1)C(=O)O)C(=O)N1CCC[C@H]1C(=O)O [lisinopril]
BP reductions in comparative short-term trials between ACEI and ARBs [1]: equivalent BP reductions
Renal protective effect of increasing the dose [9]: additional renal protective effects, independent of any BP reductions

CCOc1nc2cccc(C(=O)OC(C)OC(=O)OC3CCCCC3)c2n1Cc1ccc(-c2ccccc2-c2nnn[nH]2)cc1 (stereo not drawn) [Candesartan cilexetil, candesartan cilexetil]
Protein Excretion, Mean ([5]; 16 mg/day column, mean of N=4 (includes one losartan 50 mg and one irbesartan 150 mg value)): 2.8 g/day
Protein Excretion, Mean ([5]; 32 mg/day column, mean of N=10 (includes one irbesartan 300 mg value)): 2.7 g/day
Protein Excretion (24-hour urinary protein excretion rate) ([5]; candesartan cilexetil 16 mg/day, individual patients): 3.2 g/day and 6.4 g/day
Protein Excretion (24-hour urinary protein excretion rate) ([5]; candesartan cilexetil 32 mg/day, individual patients): 1.1 g/day and 2.0 g/day and 0.8 g/day and 4.9 g/day and 3.3 g/day and 2.7 g/day and 6.4 g/day and 4.6 g/day and 1.2 g/day
Protein Excretion (24-hour urinary protein excretion rate) ([5]; candesartan cilexetil 48 mg/day, individual patients): 0.9 g/day and 0.2 g/day (2×) and 2.6 g/day and 1.7 g/day and 2.9 g/day and 5.8 g/day and 1.2 g/day
Protein Excretion, Mean ([5]; candesartan cilexetil 48 mg/day, mean of N=8): 1.9 g/day
Protein Excretion (24-hour urinary protein excretion rate) ([5]; candesartan cilexetil 64 mg/day, individual patients): 1.7 g/day and 1.1 g/day and 0.4 g/day and 0.2 g/day and 1.3 g/day and 3.0 g/day and 4.7 g/day and 0.7 g/day
Protein Excretion, Mean ([5]; candesartan cilexetil 64 mg/day, mean of N=8): 1.6 g/day
Protein Excretion (24-hour urinary protein excretion rate) ([5]; candesartan cilexetil 80 mg/day, individual patients): 0.9 g/day and 0.5 g/day and 0.3 g/day and 1.6 g/day and 3.4 g/day and 1.4 g/day and 2.4 g/day and 0.6 g/day
Protein Excretion, Mean ([5]; candesartan cilexetil 80 mg/day, mean of N=8): 1.4 g/day
Protein Excretion (24-hour urinary protein excretion rate) ([5]; candesartan cilexetil 96 mg/day, individual patients): 0.6 g/day and 0.2 g/day and 1.8 g/day and 2.3 g/day and 0.7 g/day
Protein Excretion, Mean ([5]; candesartan cilexetil 96 mg/day, mean of N=5): 1.1 g/day
Effect on 24-hour urinary protein excretion beyond the recommended maximum dose ([5]; dose extended beyond 32 mg/d): progressive reductions in 24-hour urinary protein excretion; also recorded: further reductions in urinary protein excretion in all subjects
Safety and tolerability ([3]; doses between 32 and 96 mg): safe, well-tolerated

CCCCC(=O)N(Cc1ccc(-c2ccccc2-c2nnn[nH]2)cc1)[C@H](C(=O)O)C(C)C [valsartan]
BP reductions in comparative short-term trials between ACEI and ARBs [1]: equivalent BP reductions
Effect on microalbuminuria [7]: additional reductions in microalbuminuria

CCCCC1=NC2(CCCC2)C(=O)N1Cc1ccc(-c2ccccc2-c2nnn[nH]2)cc1 [irbesartan]
BP reductions in comparative short-term trials between ACEI and ARBs [1]: equivalent BP reductions
Protein Excretion (24-hour urinary protein excretion rate) ([5]; irbesartan 150 mg, patient 7): 0.5** g/day
Protein Excretion (24-hour urinary protein excretion rate) ([5]; irbesartan 300 mg, patient 6): 0.4^§ g/day
Affinity for the AT1 receptor [6]: high affinity
Type of antagonism at the AT1 receptor [6]: insurmountable
Effect on microalbuminuria [7]: additional reductions in microalbuminuria
